Source: patent US20060166906A1, “6-O-substituted erythromycin derivatives having improved gastrointestinal tolerance” (priority 2001, published 2006)

Test system: conscious ferrets
Assay: Gastrointestinal tolerability study: nausea and emesis in conscious ferrets
Assay type: in vivo, ferret
Conditions: observed 90 minutes; for % Emesis: oral gavage 30 mg/kg in 2 mL ethanol and 4 mL water, vomiting ferrets / animals dosed; for Nausea Score: oral gavage 30 mg/kg, mean number of nausea behaviors (up to five) per animal
Protocol: Example 3 and three reference compounds were investigated for their ability to produce nausea and emesis in conscious ferrets using the method as described in Drugs, 53(2), 206-234 (1997) and Cancer Treat. Rep., 66(1), 187-189 (1982). Each compound was administered to 6 ferrets by oral gavage at 30 mg/kg in 2 mL of ethanol and 4 mL of water. […] Nausea was preceded by up to five of the following behaviors in the ferret: licking, down, flop, backing, and gag. […] The mean nausea score for a compound is the total number of nausea behaviors divided by the number of animals given the compound. Percent emesis is the total number of vomiting ferrets divided by the number of animals administered the compound.

SMILES | % Emesis [%] | Nausea Score
CC[C@H]1OC(=O)[C@H](C)[C@@H](O[C@H]2C[C@@](C)(OC)[C@@H](O)[C@H](C)O2)[C@H](C)[C@@H](O[C@@H]2O[C@H](C)C[C@H](N(C)C)[C@H]2O)[C@](C)(OC)C[C@@H](C)C(=O)[C@H](C)[C@@H](O)[C@]1(C)O [Clarithromycin] | 83 | 1.4
CC[C@H]1OC(=O)[C@H](C)[C@@H](O[C@H]2C[C@@](C)(OC)[C@@H](O)[C@H](C)O2)[C@H](C)[C@@H](O[C@@H]2O[C@H](C)C[C@H](N(C)C)[C@H]2O)[C@](C)(O)C[C@@H](C)C(=O)[C@H](C)[C@@H](O)[C@]1(C)O [Erythromycin] | 67 | 1.2
CC[C@H]1OC(=O)[C@H](C)C(=O)[C@H](C)[C@@H](O[C@@H]2O[C@H](C)C[C@H](N(C)C)[C@H]2O)[C@](C)(OC)C[C@@H](C)C(=O)[C@H](C)[C@H]2N(CCCCn3cnc(-c4cccnc4)c3)C(=O)O[C@]12C [Telithromycin] | 50 | 1.8
